From PubChem BioAssay (NCI)
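These data come from cells grown in 96-well plates and exposed to compound for 48 hours at five concentrations. GI50 marks 50% less growth. TGI: concentration producing complete growth inhibition.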

Key:
Assay in all cases: NCI-60 cell line screen, 48 h; in the data active = GI50 below about 0.43 µM; inactive = the rest
HS 578T breast = tested on: HS 578T breast
M14 melanoma = tested on: M14 melanoma
LOX IMVI melanoma = tested on: LOX IMVI melanoma
HCT-15 colon = tested on: HCT-15 colon
COLO 205 colon = tested on: COLO 205 colon
SF-268 CNS = tested on: SF-268 CNS
MOLT-4 leukemia = tested on: MOLT-4 leukemia
OVCAR-4 ovarian = tested on: OVCAR-4 ovarian
CAKI-1 renal = tested on: CAKI-1 renal
NCI-H460 lung = tested on: NCI-H460 lung
IGROV1 ovarian = tested on: IGROV1 ovarian
A498 renal = tested on: A498 renal
MALME-3M melanoma = tested on: MALME-3M melanoma
UO-31 renal = tested on: UO-31 renal
HT29 colon = tested on: HT29 colon
HL-60(TB) leukemia = tested on: HL-60(TB) leukemia
A549 NSCLC = tested on: A549 NSCLC
OVCAR-8 ovarian = tested on: OVCAR-8 ovarian
786-0 renal = tested on: 786-0 renal
MDA-MB-231 breast = tested on: MDA-MB-231 breast
CCRF-CEM leukemia = tested on: CCRF-CEM leukemia
KM12 colon = tested on: KM12 colon
T-47D breast = tested on: T-47D breast
NCI-H23 lung = tested on: NCI-H23 lung
SK-MEL-5 melanoma = tested on: SK-MEL-5 melanoma
RXF 393 renal = tested on: RXF 393 renal
SK-MEL-28 melanoma = tested on: SK-MEL-28 melanoma
HOP-62 NSCLC = tested on: HOP-62 NSCLC
SF-539 CNS = tested on: SF-539 CNS

Cn1c(=O)c(Sc2ccccc2F)cc2cnc(NC3CCOCC3)nc21
inactive: GI50 (HS 578T breast) > 25 µM | GI50 (M14 melanoma) > 25 µM | GI50 (LOX IMVI melanoma) > 25 µM | GI50 (HCT-15 colon) > 25 µM | GI50 (COLO 205 colon) > 25 µM | GI50 (SF-268 CNS) > 25 µM | GI50 (MOLT-4 leukemia) > 25 µM | GI50 (OVCAR-4 ovarian) > 25 µM | GI50 (CAKI-1 renal) > 25 µM | GI50 (NCI-H460 lung) > 25 µM | GI50 (IGROV1 ovarian) > 25 µM | GI50 (A498 renal) > 25 µM | GI50 (MALME-3M melanoma) > 25 µM | GI50 (UO-31 renal) > 25 µM | GI50 (HT29 colon) > 25 µM | GI50 (HL-60(TB) leukemia) > 25 µM | GI50 (A549 NSCLC) > 25 µM | GI50 (OVCAR-8 ovarian) > 25 µM | GI50 (786-0 renal) > 25 µM | GI50 (MDA-MB-231 breast) > 25 µM | GI50 (CCRF-CEM leukemia) > 25 µM | GI50 (KM12 colon) > 25 µM | GI50 (T-47D breast) > 25 µM | GI50 (NCI-H23 lung) > 25 µM | GI50 (SK-MEL-5 melanoma) > 25 µM | GI50 (RXF 393 renal) > 25 µM | GI50 (SK-MEL-28 melanoma) > 25 µM | GI50 (HOP-62 NSCLC) > 25 µM | GI50 (SF-539 CNS) > 25 µM
> 25 µM: TGI (HS 578T breast) | TGI (M14 melanoma) | TGI (LOX IMVI melanoma) | TGI (HCT-15 colon) | TGI (COLO 205 colon) | TGI (SF-268 CNS) | TGI (MOLT-4 leukemia) | TGI (OVCAR-4 ovarian) | TGI (CAKI-1 renal) | TGI (NCI-H460 lung) | TGI (IGROV1 ovarian) | TGI (A498 renal) | TGI (MALME-3M melanoma) | TGI (UO-31 renal) | TGI (HT29 colon) | TGI (HL-60(TB) leukemia) | TGI (A549 NSCLC) | TGI (OVCAR-8 ovarian) | TGI (786-0 renal) | TGI (MDA-MB-231 breast) | TGI (CCRF-CEM leukemia) | TGI (KM12 colon) | TGI (T-47D breast) | TGI (NCI-H23 lung) | TGI (SK-MEL-5 melanoma) | TGI (RXF 393 renal) | TGI (SK-MEL-28 melanoma) | TGI (HOP-62 NSCLC)
